Reference: US8778881B2 (priority 2004, dated 2014)
Where two headings read alike, the source gives them in different places. Bridge positions count the residues as written; N and C are the ends. Square brackets hold non-standard residues; d marks the D form. Peptide text beside a SMILES is read from it. Ala(2-furyl) = N[C@@H](Cc1ccco1)C(=O)O; Orn(iPr) = CC(C)NCCC[C@H](N)C(=O)O; Aad = N[C@@H](CCCC(=O)O)C(=O)O; Orn = NCCC[C@H](N)C(=O)O; Dab = NCC[C@H](N)C(=O)O

Biological target: T1, hV1a receptor (Homo sapiens, UniProt P37288)
T1 construct: expressed in transfected cells; host or cells: HEK-293 cells (transient transfection)
Test: hV1a receptor transcriptional reporter (luciferase) agonist assay in HEK-293 cells
Format: cell-based
Procedure: Agonist activity of compounds on the hV1a receptor was determined in a transcriptional reporter assay by transiently transfecting a hV1a receptor expression DNA into HEK-293 cells in concert with a reporter DNA containing intracellular calcium responsive promoter elements regulating expression of firefly luciferase. See Boss, V., Talpade, D. J., Murphy, T. J. J. Biol. Chem. 1996, May 3; 271(18), 10429-10432 for further guidance on this assay. […] To determine selectivity, compounds were tested in luciferase-based transcriptional reporter assays expressing the human oxytocin (hOT) receptor. Assays for other receptors (hV2, hV1b, rat V1a and rat V2) were also conducted.
The EC50 value given is the geometric mean expressed in nanomol/L (nM). Selectivity values are given as EC50 ratios.

T1 sequence (P37288 whole entry): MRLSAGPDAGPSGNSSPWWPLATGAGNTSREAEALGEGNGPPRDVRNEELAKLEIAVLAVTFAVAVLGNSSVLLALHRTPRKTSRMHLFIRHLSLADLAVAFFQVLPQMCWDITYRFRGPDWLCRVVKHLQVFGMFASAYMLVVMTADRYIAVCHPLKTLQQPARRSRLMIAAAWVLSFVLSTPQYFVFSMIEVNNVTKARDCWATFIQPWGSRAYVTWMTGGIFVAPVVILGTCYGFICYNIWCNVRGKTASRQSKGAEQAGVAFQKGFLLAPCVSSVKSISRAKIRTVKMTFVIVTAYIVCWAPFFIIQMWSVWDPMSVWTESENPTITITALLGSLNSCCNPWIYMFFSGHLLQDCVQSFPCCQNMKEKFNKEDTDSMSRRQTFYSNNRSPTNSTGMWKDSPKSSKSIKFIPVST

## CC[C@H](C)[C@@H]1NC(=O)[C@H](Cc2ccccc2)NC(=O)[C@@H](N)CSSC[C@@H](C(=O)N2CCC[C@H]2C(=O)N[C@@H](CCCNC(C)C)C(=O)NCC(N)=O)NC(=O)[C@H](CC(N)=O)NC(=O)[C@H](CCCC(N)=O)NC1=O [Compound 1, [Phe^2, Hgn^4, Orn (i-Pr)^8]VT] (H-CFI[Aad](NH2)NCP[Orn(iPr)]G-NH2; disulfide 1-6; N-terminus assumed)
  EC50: 2.02 nM

## CC[C@H](C)[C@@H]1NC(=O)[C@H](Cc2ccco2)NC(=O)[C@@H](N)CSSC[C@@H](C(=O)N2CCC[C@H]2C(=O)N[C@@H](CCCN)C(=O)NCC(N)=O)NC(=O)[C@H](CC(N)=O)NC(=O)[C@H](CCC(N)=O)NC1=O [Compound 32] (H-C[Ala(2-furyl)]IQNCP[Orn]G-NH2; disulfide 1-6)
read-out: EC50 hV1a receptor
  EC50: 2.64 nM

## CCNC(=O)C[C@@H]1NC(=O)[C@H]([C@@H](C)CC)NC(=O)[C@H](Cc2ccccc2)NC(=O)[C@@H](N)CSSC[C@@H](C(=O)N2CCC[C@H]2C(=O)N[C@@H](CCN)C(=O)NCC(N)=O)NC(=O)[C@H](CC(N)=O)NC1=O [Compound 4, [Phe^2,Asn (Et)^4, Dbu^8]VT] (H-CFID(NHEt)NCP[Dab]G-NH2; disulfide 1-6)
Geometric mean, HEK-293 cells transiently transfected, 5 hours exposure, at least three independent experiments, read-out: EC50 hV1a receptor
  EC50: 2.36 nM
